± gives the expanded uncertainty stated by the source.
Conditions: Liquid

CC[S+]([O-])CC [diethyl sulfoxide]
vapor or sublimation pressure (298.15 K): 0.0202 ± 0.0046 kPa | vapor or sublimation pressure (303.15 K): 0.0339 ± 0.005 kPa | vapor or sublimation pressure (308.15 K): 0.0438 ± 0.0054 kPa | vapor or sublimation pressure (313.15 K): 0.0681 ± 0.0064 kPa | vapor or sublimation pressure (318.15 K): 0.0924 ± 0.0075 kPa
